“And” between values parts separate entries of the source, which are not always exact repeats. Equal values may be shown once.
Tested on: monocyte-derived dendritic cells (moDCs)
Test: Multiplex xMAP cytokine levels, moDCs alone stimulated with LL-37
Format: cell-based, human
Settings: 1 µM LL-37, 24 h
Experimental: Peripheral blood mononuclear cells (PBMCs) from a healthy donor were purchased from the American Type Culture Collection (ATCC PCS-800-011). Blood monocytes were isolated from PBMCs by plastic adhesion. Mature monocyte-derived dendritic cells (moDCs) were generated in vitro from peripheral blood monocytes, according to Nair et al.. Briefly, monocytes were cultured in a humidified CO2-incubator (5% CO2, 37 °C) in the complete RPMI-1640 medium (Gibco) with 10% FBS, antibiotics, and supplemented with a cytokine cocktail containing 500 U/mL rhIL-4 and 800 U/mL rhGM-CSF (both Sci-Store, Moscow, Russia). On the third day, the medium was replaced by the same fresh medium with FBS, antibiotics, and the cytokine cocktail. Induction of maturation of the immature monocyte-derived dendritic cells was performed on the 5th day by replacing the medium with the complete RPMI-1640 medium (Gibco) with 10% FBS and antibiotics, supplemented with a cytokine cocktail containing 500 U/mL rhIL-4, 800 U/mL rhGM-CSF (both Sci-Store, Moscow, Russia), and 100 U/mL rhTNF-α (Sigma-Aldrich), and subjected to subsequent incubation of the culture for 4 more days.
Primary blood monocytes, moDCs, and NKT cells were seeded in 600 µL of complete RPMI-1640 with 10% Human AB serum (Capricorn Scientific, Ebsdorfergrund, Germany) and supplemented with 1X antibiotic–antimycotic solution into the wells of 24-well plates at a density of 3–7 × 10^5 cells/well 24 h before the experiment. Then, 24 h later, the medium in each well was replaced by the same medium with 1 µM of LL-37 for the sample wells or fresh medium alone for the control wells, and the permeable inserts with the Caco-2 monolayer with TEER > 400 Ω × cm^2, containing 400 μL of the complete medium in their apical chamber, were immediately placed into the appropriate wells. Also, inserts with the Caco-2 monolayer were placed in cell-free wells of 24-well plates in the same complete RPMI-1640 medium with or without 1 µM of LL-37 as controls. Cells were kept in a CO2-incubator (5% CO2, 37 °C) for another 24 h. Then, culture medium from each well was collected, centrifuged, and frozen at −70 °C.
To quantitatively evaluate a broad spectrum of analytes secreted by human cell cultures at the protein level, multiplex xMAP technology was used. The chosen panel (cat. #HCYTA-60K-PX48, Merck, Darmstadt, Germany) included 48 different magnetic beads with primary antibodies to the following cytokines, chemokines, and growth factors: CCL11 (Eotaxin-1), Flt-3 ligand, CX3CL1 (Fractalkine), sCD40L, FGF-2, EGF, GROα, GM-CSF, G-CSF, IL-1RA, IL-1α, IL-1β, IL-2, IL-3, IL-4, IL-5, IL-6, IL-7, CXCL8 (IL-8), IL-9, IL-10, IL-12p40, IL-12p70, IL-13, IL-15, IL-17A (CTLA8), IL-17E (IL-25), IL-17F, IL-18, IL-22, IL-27, IFNγ, IFNα2, CXCL10 (IP-10), CCL2 (MCP-1), CCL7 (MCP-3), CCL22 (MDC), CXCL9 (MIG), CCL3 (MIP-1α), CCL4 (MIP-1β), CCL5 (RANTES), M-CSF, PDGF-AA, PDGF-AB/BB, TNFα, TNFβ, TGFα, and VEGF-A. The assay was performed in accordance with the manufacturer’s instructions with overnight incubation of the samples with primary antibodies, and the plate was read on a MAGPIX System (Merck) using the xPONENT 4.2 software (Merck). The acquired fluorescence data were analyzed by the MILLIPLEX Analyst v5.1 software (Merck), which realized an advanced curve-fitting algorithm. Levels of the analytes in control and experimental samples were compared with an unpaired two-sample t-test using GraphPad Prism v.8.0.1 (GraphPad Software, Inc., San Diego, CA, USA). The p-values ≤ 0.05 were considered significant.

LL-37: the only human cathelicidin, host defense antimicrobial peptide of 37 a.a. residues, produced by solid-phase peptide synthesis
FLT-3L level (n=2, control 0.57): 0.51 pg/mL | IL-2 level (n=2, control 0.91): 0.91 pg/mL | IL-4 level (n=2, control 1.14): 1.31 pg/mL | TNFb level (n=2, control 1.49): 1.3 pg/mL | IL-3 level (n=2, control 1.55): 0.91 pg/mL | IL-18 level (n=2, control 1.61): 0.63 pg/mL | VEGFa level (n=2, control 2.82): 4.61 pg/mL | IL-15 level (n=2, control 4.12): 4.36 pg/mL | IL-5 level (n=2, control 4.63): 3.23 pg/mL | IFNg level (n=2, control 5.89): 5.02 pg/mL | EGF level (n=2, control 7.65): 6.75 pg/mL | IL-9 level (n=2, control 8.22): 7.84 pg/mL | IL-1b level (n=2, control 9.37): 7 pg/mL | IFNa2 level (n=2, control 10.16): 11.65 pg/mL | IL-1RA level (n=2, control 11.72): 11.72 pg/mL | GM-CSF level (n=2, control 13.02): 10.06 pg/mL | IL-22 level (n=2, control 13.22): 11.11 pg/mL | G-CSF level (n=2, control 20.3): 13.54 pg/mL | PDGF-AA level (n=2, control 24.8): 25.69 pg/mL | TGF-a level (n=2, control 25.07): 20.52 pg/mL | IL-6 level (n=2, control 27.8): 30.65 pg/mL | Fractalkine level (n=2, control 28.72): 25.92 pg/mL | IL-13 level (n=2, control 36.28): 29.87 pg/mL | TNFa level (n=2, control 40.81): 40.03 pg/mL | FGF-2 level (n=2, control 48.6): 47.27 pg/mL | GROa level (n=2, control 51.39): 53.94 pg/mL | IL-27 level (n=2, control 55.75): 59.83 pg/mL | IL-12 (p40) level (n=2, control 61.22): 61.22 pg/mL | IP-10 level (n=2, control 66.42): 57.64 pg/mL | PDGF-AB/BB level (n=2, control 72.4): 70.07 pg/mL | IL-10 level (n=2, control 89.23, p = 0.0058): 62 pg/mL and 62.12 pg/mL | sCD40L level (n=2, control 98.84): 95.47 pg/mL | M-GSF level (n=2, control 200.96): 185.65 pg/mL | RANTES level (n=2, control 423.03): 417.4 pg/mL | MCP-3 level (n=2, control 573.83): 545.69 pg/mL | MIP-1b level (n=2, control 2042): 2065 pg/mL | MIP-1a level (n=2, control 2533): 2368 pg/mL | MCP-1 level (n=2, control 3176): 2573 pg/mL | IL-8 level (n=2, control 4102): 4051 pg/mL | MIG level (n=2, control 27057): 23618 pg/mL | IL-7 level (n=2, control <0.30): <0.30↓ pg/ml | IL-17A level (n=2, control <0.70): <0.70↓ pg/ml | IL-1a level (n=2, control <1.30): <1.30↓ pg/ml | IL-12 (p70) level (n=2, control <1.71): <1.71↓ pg/ml | Eotaxin level (n=2, control <2.91): <2.91↓ pg/ml | IL-17F level (n=2, control <12.19): <12.19↓ pg/ml | IL-17E/IL-25 level (n=2, control <19.43): <19.43↓ pg/ml | MDC level (n=2, control >14590): >14590↑ pg/ml

— publication PMC10526274, “Epithelial-Immune Cell Crosstalk Determines the Activation of Immune Cells In Vitro by the Human Cathelicidin LL-37 at Low Physiological Concentrations” (Biomolecules, 2023)
